The results in this text go back to patent US20240415819A1, “MACROCYCLIC COMPOUNDS AS PROTEASOME SUBUNIT BETA TYPE-5 INHIBITORS” (Lead Discovery Center GmbH, priority 2021, published 2024).

In experiment [1] the target is T1, β5 subunit of the human immunoproteasome (IPS) (Homo sapiens, UniProt P28062).
T1 construct: purchased Boston Biochem E-370
Kind of experiment: β5 inhibition assay, human immunoproteasome (Suc-LLVY-AMC). The experiment is classed as biochemical. The settings on record: IC50 class, Suc-LLVY-AMC substrate. A digest of the protocol:
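Human immunoproteasome (1 nM final) was preincubated 10 min at RT with compound in 100 mM HEPES pH 7.5, 50 mM NaCl, 0.02% SDS, 1 mM DTT. Suc-LLVY-AMC (22.6 μM final) was then added for 4 h at RT in the dark. After stopping with 1 μM bortezomib, AMC fluorescence was read (ex 355/em 460 nm).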

Experiment [2] deals with A549 (human lung carcinoma cell line). Kind of experiment: Glo assay of A549 cells (Table 3; ProteasomeGlo plating scheme). The experiment is classed as cell-based. The note with it: Homo sapiens; A549 cells; read-out: PGLo A549. The essentials:
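Cells plated in 384 wells; compound, DMSO, staurosporine transferred by ECHO; 105 min, 37° C., 5% CO2; Proteasome-Glo (Suc-LLVY-Glo) reagent added; dark 10-15 min; luminescence; IC50 nM.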

Regarding `Cc1ccc2cc1CNC(=O)[C@H](CCc1ccccc1)NC(=O)[C@@H](NC(=O)C1(N)COC1)CC(=O)N1CCCC(CCO2)C1` (stereo partly drawn) [Compound 158, 3-amino-N-((9S,12S)-5^4-methyl-8,11,14-trioxo-9-phenethyl-4-oxa-7,10-diaza-1(3,1)-piperidina-5(1,3)-benzenacyclotetradecaphane-12-yl)oxetane-3-carboxamide], the IC50 in experiment [1] and in experiment [2] was less than 100 nM throughout.

For `Cc1ccc2cc1CNC(=O)[C@H](CCc1ccccc1)NC(=O)[C@@H](NC(=O)C1(C)CCOCC1)CC(=O)N1CCCC(CCO2)C1` (stereo partly drawn) [Compound 288, 4-methyl-N-((9S,12S)-5^4-methyl-8,11,14-trioxo-9-phenethyl-4-oxa-7,10-diaza-1(3,1)-piperidina-5(1,3)-benzenacyclotetradecaphane-12-yl)tetrahydro-2H-pyran-4-carboxamide], the IC50 was less than 100 nM in experiment [1] and 100 to 500 nM in experiment [2].

For `CC(=O)N[C@H]1CCC(=O)NCCCCOc2ccc(C)c(c2)CNC(=O)[C@H](CCc2ccccc2)NC1=O` [Compound 171, N-((11S,14S)-1^4-methyl-8,12,15-trioxo-14-phenethyl-2-oxa-7,13,16-triaza-1(1,3)-benzenacycloheptadecaphane-11-yl)acetamide], the IC50 in experiment [1] was less than 100 nM; in experiment [2] it was 500 to 1000 nM.

Take `CNCCOCC(=O)N[C@H]1CC(=O)N2CCCC(CCOc3ccc(C)c(c3)CNC(=O)[C@H](CCc3ccccc3)NC1=O)C2` (stereo partly drawn) [Compound 130, N-((9S,12S)-5^4-methyl-8,11,14-trioxo-9-phenethyl-4-oxa-7,10-diaza-1(3,1)-piperidina-5(1,3)-benzenacyclotetradecaphane-12-yl)-2-(2-(methylamino)ethoxy)acetamide]: the IC50 in experiment [1] was less than 100 nM; in experiment [2], 100 to 500 nM.

In the case of `Cc1ccc2cc1CNC(=O)C(c1cnn(C)c1)NC(=O)CCC(=O)N1CCCC(CCO2)C1` (centres unmarked) [Compound 116, 5^4-methyl-9-(1-methyl-1H-pyrazol-4-yl)-4-oxa-7,10-diaza-1(3,1)-piperidina-5(1,3)-benzenacyclotetradecaphane-8,11,14-trione], the IC50 is 100 to 500 nM in experiment [1] and greater than 5000 nM in experiment [2].

On to `Cc1ccc2cc1CNC(=O)[C@H](CCc1ccccc1)NC(=O)[C@@H](Nc1nc3ccccc3[nH]1)CC(=O)N1CCCC(CCO2)C1` (stereo partly drawn) [Compound 45, (9S,12S)-12-((1H-benzo[d]imidazol-2-yl)amino)-5^4-methyl-9-phenethyl-4-oxa-7,10-diaza-1(3,1)-piperidina-5(1,3)-benzenacyclotetradecaphane-8,11,14-trione], for which the IC50 in experiment [1] is less than 100 nM; in experiment [2], 100 to 500 nM.

`Cc1ccc2cc1CNC(=O)[C@H](Cc1ccccc1)NC(=O)CCC(=O)N1CCCC(CCO2)C1` (stereo partly drawn) [Compound 79, (9S)-9-benzyl-5^4-methyl-4-oxa-7,10-diaza-1(3,1)-piperidina-5(1,3)-benzenacyclotetradecaphane-8,11,14-trione]: the figures for the IC50 in experiment [1] and in experiment [2] were less than 100 nM and 1000 to 5000 nM, respectively.

With `CC(=O)N[C@H]1CC(=O)N2CCCC(CCOc3ccc(C)c(c3)CNC(=O)C(c3cnn(CCCC(=O)O)c3)NC1=O)C2` (stereo partly drawn) [Compound 568, 4-(4-((12S)-12-acetamido-5^4-methyl-8,11,14-trioxo-4-oxa-7,10-diaza-1(3,1)-piperidina-5(1,3)-benzenacyclotetradecaphane-9-yl)-1H-pyrazol-1-yl)butanoic acid], the IC50 in experiment [1] and in experiment [2] was less than 100 nM throughout.

Consider `COc1ccccc1CC(=O)N[C@H]1CC(=O)N2CCCC(CCOc3ccc(C)c(c3)CNC(=O)[C@H](CCc3ccccc3)NC1=O)C2` (stereo partly drawn) [Compound 84, 2-(2-methoxyphenyl)-N-((9S,12S)-5^4-methyl-8,11,14-trioxo-9-phenethyl-4-oxa-7,10-diaza-1(3,1)-piperidina-5(1,3)-benzenacyclotetradecaphane-12-yl)acetamide], for which the IC50 in experiment [1] and in experiment [2] was less than 100 nM in each case.

On to `Cc1ccc2cc1CNC(=O)[C@@H](CCc1ccccc1)NC(=O)[C@@H](NC(=O)OCc1ccccc1)CC(=O)N1CCC[C@H](CCO2)C1` [Compound 289, benzyl ((13R,9R,12S)-5^4-methyl-8,11,14-trioxo-9-phenethyl-4-oxa-7,10-diaza-1(3,1)-piperidina-5(1,3)-benzenacyclotetradecaphane-12-yl)carbamate], for which the IC50 in experiment [1] fell in the range of 100 to 500 nM; in experiment [2], 500 to 1000 nM.

`Cc1ccc2cc1CNC(=O)[C@H](CCc1ccccc1)NC(=O)[C@@H](NC(=O)c1n[nH]c3ccccc13)CC(=O)N1CCCC(CCO2)C1` (stereo partly drawn) [Compound 60, N-((9S,12S)-5^4-methyl-8,11,14-trioxo-9-phenethyl-4-oxa-7,10-diaza-1(3,1)-piperidina-5(1,3)-benzenacyclotetradecaphane-12-yl)-1H-indazole-3-carboxamide]: the results for the IC50 in experiment [1] and in experiment [2] were less than 100 nM and 100 to 500 nM, respectively.

As to `Cc1ccc2cc1CNC(=O)[C@H](CCc1ccccc1)NC(=O)[C@@H](NC(=O)C1CC(F)(F)CN1)CC(=O)N1CCCC(CCO2)C1` (stereo partly drawn) [Compound 135, (2S)-4,4-difluoro-N-((9S,12S)-5^4-methyl-8,11,14-trioxo-9-phenethyl-4-oxa-7,10-diaza-1(3,1)-piperidina-5(1,3)-benzenacyclotetradecaphane-12-yl)pyrrolidine-2-carboxamide], the IC50 in experiment [1] and in experiment [2] was less than 100 nM each time.

Take `Cc1ccc2cc1CNC(=O)[C@H](CCc1ccccc1)NC(=O)[C@@H](NC(=O)OCc1ccccc1)CCC(=O)N1CCCC(CCO2)C1` (stereo partly drawn) [Compound 199, benzyl ((9S,12S)-5^4-methyl-8,11,15-trioxo-9-phenethyl-4-oxa-7,10-diaza-1(3,1)-piperidina-5(1,3)-benzenacyclopentadecaphane-12-yl)carbamate]: the IC50 in experiment [1] and in experiment [2] was less than 100 nM each time.

As to `CC(=O)N[C@H]1CCC(=O)N2CCOC(CCOc3ccc(C)c(c3)CNC(=O)[C@H](CCc3ccccc3)NC1=O)C2` (stereo partly drawn) [Compound 143, N-((9S,12S)-5^4-methyl-8,11,15-trioxo-9-phenethyl-4-oxa-7,10-diaza-1(2,4)-morpholina-5(1,3)-benzenacyclopentadecaphane-12-yl)acetamide], the IC50 in experiment [1] was less than 100 nM; in experiment [2], 100 to 500 nM.

`Cc1ccc2cc1CNC(=O)[C@H](CCc1ccccc1)NC(=O)[C@@H](NC(=O)[C@H](C)c1ccccc1)CC(=O)N1CCCC(CCO2)C1` (stereo partly drawn) [Compound 80, (2R)-N-((9S,12S)-5^4-methyl-8,11,14-trioxo-9-phenethyl-4-oxa-7,10-diaza-1(3,1)-piperidina-5(1,3)-benzenacyclotetradecaphane-12-yl)-2-phenylpropanamide]: the IC50 in experiment [1] and in experiment [2] was less than 100 nM in each case.

In the case of `COc1cccc(CC(=O)N[C@H]2CC(=O)N3CCCC(CCOc4ccc(C)c(c4)CNC(=O)[C@H](CCc4ccccc4)NC2=O)C3)c1` (stereo partly drawn) [Compound 85, 2-(3-methoxyphenyl)-N-((9S,12S)-5^4-methyl-8,11,14-trioxo-9-phenethyl-4-oxa-7,10-diaza-1(3,1)-piperidina-5(1,3)-benzenacyclotetradecaphane-12-yl)acetamide], the IC50 in experiment [1] and in experiment [2] was less than 100 nM in each case.

Take `Cc1ccc2cc1CNC(=O)[C@H](CCc1ccccc1)NC(=O)[C@@H](NC(=O)C1CCN1)CC(=O)N1CCCC(CCO2)C1` (stereo partly drawn) [Compound 160, (2R)-N-((9S,12S)-5^4-methyl-8,11,14-trioxo-9-phenethyl-4-oxa-7,10-diaza-1(3,1)-piperidina-5(1,3)-benzenacyclotetradecaphane-12-yl)azetidine-2-carboxamide]: the IC50 in experiment [1] is less than 100 nM; in experiment [2], 100 to 500 nM.

Take `Cc1ccc2cc1CNC(=O)[C@H](CCc1ccccc1)NC(=O)[C@@H](NS(C)(=O)=O)CC(=O)N1CCCC(CCO2)C1` (stereo partly drawn) [Compound 37, N-((9S,12S)-5^4-methyl-8,11,14-trioxo-9-phenethyl-4-oxa-7,10-diaza-1(3,1)-piperidina-5(1,3)-benzenacyclotetradecaphane-12-yl)methanesulfonamide]: the IC50 in experiment [1] and in experiment [2] was less than 100 nM each time.

`Cc1ccc2cc1CNC(=O)[C@H](CCc1ccccc1)NC(=O)[C@@H](NC(=O)c1ccncc1)CC(=O)N1CCCC(CCO2)C1` (stereo partly drawn) [Compound 42, N-((9S,12S)-5^4-methyl-8,11,14-trioxo-9-phenethyl-4-oxa-7,10-diaza-1(3,1)-piperidina-5(1,3)-benzenacyclotetradecaphane-12-yl)isonicotinamide]: the IC50 in experiment [1] and in experiment [2] was less than 100 nM throughout.

For `Cc1ccc2cc1CNC(=O)[C@H](CCc1ccccc1)NC(=O)[C@@H](NC(=O)CCc1cccc(F)c1)CC(=O)N1CCCC(CCO2)C1` (stereo partly drawn) [Compound 25, 3-(3-fluorophenyl)-N-((9S,12S)-5^4-methyl-8,11,14-trioxo-9-phenethyl-4-oxa-7,10-diaza-1(3,1)-piperidina-5(1,3)-benzenacyclotetradecaphane-12-yl)propanamide], the IC50 in experiment [1] and in experiment [2] was less than 100 nM throughout.

For `Cc1ccc2cc1CNC(=O)[C@H](CCc1ccccc1)NC(=O)[C@@H](NC(=O)CCc1ccccc1-c1ccccc1)CC(=O)N1CCCC(CCO2)C1` (some centres unmarked) [Compound 177], the IC50 in experiment [1] and in experiment [2] was less than 100 nM each time.

For `CC(=O)N[C@H]1CC(=O)N2CCCC(CCOc3ccc(C)c(c3)CNC(=O)C(c3cnn(CCCS(=O)(=O)O)c3)NC1=O)C2` (stereo partly drawn) [Compound 571, 3-(4-((12S)-12-acetamido-5^4-methyl-8,11,14-trioxo-4-oxa-7,10-diaza-1(3,1)-piperidina-5(1,3)-benzenacyclotetradecaphane-9-yl)-1H-pyrazol-1-yl)propane-1-sulfonic acid], the IC50 in experiment [1] and in experiment [2] was less than 100 nM in each case.
